The record followed here is the NIST ThermoML archive (doi:10.1016/j.fluid.2011.09.011).

For orientation: mass density means the mass of a sample divided by its volume.

For the data set the following is noted: 298.15 K; 101.33 kPa; Liquid; Vibrating tube method.

SMILES strings stand for the structures. Numbers after ± are expanded uncertainties.

As to `CCOS(=O)(=O)[O-].CCn1cc[n+](C)c1` [1-ethyl-3-methylimidazolium ethyl sulfate], the mass density was determined as 1236.55 ± 8.3 kg/m3.

Regarding `CCCCn1cc[n+](C)c1.F[B-](F)(F)F` [1-butyl-3-methylimidazolium tetrafluoroborate], the mass density amounted to 1203.76 ± 7.9 kg/m3.
